This note sets out measurements from article PMC10222858 (Marine Drugs, 2023).

The target of one assay is rα3β4 nAChRs (Rattus norvegicus, UniProt P04757+P12392). Nature of the assay: cell-based. Type of assay: cell-based.
A further assay has as its target rα6/α3β4 nAChRs (Rattus norvegicus, UniProt P04757+P12392+P43143). Kind of assay: cell-based. Type of assay: cell-based.

Where a SMILES comes first, the peptide text is derived from it.

Sequence of rα6/α3β4 nAChRs (P04757 whole entry, looked up): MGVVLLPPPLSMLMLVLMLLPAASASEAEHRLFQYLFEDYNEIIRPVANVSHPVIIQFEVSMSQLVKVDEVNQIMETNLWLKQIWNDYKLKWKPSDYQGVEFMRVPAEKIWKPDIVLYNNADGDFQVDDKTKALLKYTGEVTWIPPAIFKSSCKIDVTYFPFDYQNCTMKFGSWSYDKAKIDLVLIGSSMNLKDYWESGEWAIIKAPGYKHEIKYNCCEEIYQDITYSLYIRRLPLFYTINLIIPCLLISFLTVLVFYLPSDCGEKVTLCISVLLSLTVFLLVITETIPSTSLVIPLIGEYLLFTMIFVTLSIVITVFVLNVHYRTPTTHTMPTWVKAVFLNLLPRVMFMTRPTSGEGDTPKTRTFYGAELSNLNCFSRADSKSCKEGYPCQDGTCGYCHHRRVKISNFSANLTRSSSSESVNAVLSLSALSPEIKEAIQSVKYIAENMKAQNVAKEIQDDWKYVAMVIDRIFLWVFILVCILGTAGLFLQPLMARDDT
Sequence of rα6/α3β4 nAChRs (P12392 whole entry, looked up): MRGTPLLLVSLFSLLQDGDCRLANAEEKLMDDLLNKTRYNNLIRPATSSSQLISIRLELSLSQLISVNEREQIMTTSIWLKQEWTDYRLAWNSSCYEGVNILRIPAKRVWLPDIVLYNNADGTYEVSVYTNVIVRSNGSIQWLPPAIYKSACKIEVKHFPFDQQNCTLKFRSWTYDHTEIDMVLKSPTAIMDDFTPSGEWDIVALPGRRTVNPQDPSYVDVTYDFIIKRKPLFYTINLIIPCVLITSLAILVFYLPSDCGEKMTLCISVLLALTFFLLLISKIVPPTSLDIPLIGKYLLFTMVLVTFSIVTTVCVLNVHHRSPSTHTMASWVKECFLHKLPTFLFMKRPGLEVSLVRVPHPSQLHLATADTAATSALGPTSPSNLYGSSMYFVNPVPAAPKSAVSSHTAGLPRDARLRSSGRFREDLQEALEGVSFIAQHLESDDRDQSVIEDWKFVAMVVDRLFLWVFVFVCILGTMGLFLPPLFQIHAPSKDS
Sequence of rα6/α3β4 nAChRs (P43143 whole entry, looked up): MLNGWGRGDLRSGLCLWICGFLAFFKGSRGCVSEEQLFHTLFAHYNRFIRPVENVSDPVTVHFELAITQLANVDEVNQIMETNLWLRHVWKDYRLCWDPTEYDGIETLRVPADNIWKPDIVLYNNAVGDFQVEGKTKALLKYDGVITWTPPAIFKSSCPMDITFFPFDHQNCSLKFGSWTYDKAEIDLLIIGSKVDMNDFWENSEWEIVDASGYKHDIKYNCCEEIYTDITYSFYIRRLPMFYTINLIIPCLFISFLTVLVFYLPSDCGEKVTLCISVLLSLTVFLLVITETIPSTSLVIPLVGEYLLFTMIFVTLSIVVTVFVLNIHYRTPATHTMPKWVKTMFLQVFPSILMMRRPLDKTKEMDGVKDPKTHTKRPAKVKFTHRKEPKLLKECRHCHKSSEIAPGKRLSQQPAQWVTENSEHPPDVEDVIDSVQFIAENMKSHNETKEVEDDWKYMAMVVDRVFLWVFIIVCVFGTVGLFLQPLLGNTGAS
Sequence of rα3β4 nAChRs (P04757 26-499 limits assumed): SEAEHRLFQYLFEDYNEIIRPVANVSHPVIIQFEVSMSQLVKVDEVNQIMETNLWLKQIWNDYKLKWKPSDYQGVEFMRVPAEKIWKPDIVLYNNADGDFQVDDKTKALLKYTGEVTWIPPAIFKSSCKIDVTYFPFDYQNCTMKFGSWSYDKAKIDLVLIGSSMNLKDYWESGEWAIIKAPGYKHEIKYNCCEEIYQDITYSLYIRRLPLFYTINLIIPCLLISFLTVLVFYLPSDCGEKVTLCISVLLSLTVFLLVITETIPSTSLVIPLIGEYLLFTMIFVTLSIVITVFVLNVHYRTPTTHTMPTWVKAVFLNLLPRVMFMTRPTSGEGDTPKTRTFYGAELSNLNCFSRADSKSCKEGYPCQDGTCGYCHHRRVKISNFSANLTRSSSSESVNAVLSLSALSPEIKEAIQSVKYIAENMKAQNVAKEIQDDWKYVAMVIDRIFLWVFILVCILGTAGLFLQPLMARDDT
Sequence of rα3β4 nAChRs (P12392 21-495 limits assumed): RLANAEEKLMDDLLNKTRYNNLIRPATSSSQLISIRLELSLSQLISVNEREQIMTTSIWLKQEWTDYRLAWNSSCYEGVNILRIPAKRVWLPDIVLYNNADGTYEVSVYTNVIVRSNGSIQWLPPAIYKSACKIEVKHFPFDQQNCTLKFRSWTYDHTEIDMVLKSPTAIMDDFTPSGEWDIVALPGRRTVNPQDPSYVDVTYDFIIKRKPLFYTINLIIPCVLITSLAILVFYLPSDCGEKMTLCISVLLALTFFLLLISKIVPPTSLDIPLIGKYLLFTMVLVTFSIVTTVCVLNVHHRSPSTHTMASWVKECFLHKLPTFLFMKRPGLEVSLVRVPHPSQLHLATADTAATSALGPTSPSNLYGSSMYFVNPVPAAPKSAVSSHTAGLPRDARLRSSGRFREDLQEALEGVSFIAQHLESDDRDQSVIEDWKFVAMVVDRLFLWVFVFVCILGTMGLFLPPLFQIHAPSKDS

For the molecule `CC[C@H](C)[C@@H]1NC(=O)[C@H](C)NC(=O)[C@@H]2CCCN2C(=O)[C@H](CO)NC(=O)[C@H](CCSC)NC(=O)[C@H](C)NC(=O)[C@H](CO)NC(=O)[C@@H]2CSSC[C@H](NC(=O)CN)C(=O)N[C@@H](CSSC[C@@H](C(N)=O)NC1=O)C(=O)N[C@@H](CO)C(=O)N[C@@H](Cc1c[nH]cn1)C(=O)N1CCC[C@H]1C(=O)N[C@@H](C(C)C)C(=O)N2` [[+14A]TxID] (HELM PEPTIDE1{G.C.C.S.H.P.V.C.S.A.M.S.P.A.I.C.[am]}$PEPTIDE1,PEPTIDE1,2:R3-8:R3|PEPTIDE1,PEPTIDE1,3:R3-16:R3$$$V2.0), the IC50 (usually the point on the concentration scale where inhibition reaches its midpoint) amounted to 37 nM against rα3β4 nAChRs and 368 nM on rα6/α3β4 nAChRs.
On to `CC[C@H](C)[C@@H]1NC(=O)[C@@H]2CCCN2C(=O)[C@H](CO)NC(=O)[C@H](CCSC)NC(=O)[C@H](C)NC(=O)[C@H](CO)NC(=O)[C@H](C)NC(=O)[C@@H]2CSSC[C@H](NC(=O)CN)C(=O)N[C@@H](CSSC[C@@H](C(N)=O)NC1=O)C(=O)N[C@@H](CO)C(=O)N[C@@H](Cc1c[nH]cn1)C(=O)N1CCC[C@H]1C(=O)N[C@@H](C(C)C)C(=O)N2` [[+9A]TxID] (HELM PEPTIDE1{G.C.C.S.H.P.V.C.A.S.A.M.S.P.I.C.[am]}$PEPTIDE1,PEPTIDE1,2:R3-8:R3|PEPTIDE1,PEPTIDE1,3:R3-16:R3$$$V2.0), for which, at rα3β4 nAChRs, the IC50 was greater than 10000 nM and the “blocking percentage of rα3β4 nAChRs” value was “less than fifty percent”. Further, on rα6/α3β4 nAChRs, the IC50 was greater than 10000 nM and the “inhibition of rα6/α3β4 nAChRs in words” value is “no obvious inhibition”.
With `CC[C@H](C)[C@@H]1NC(=O)[C@@H]2CCCN2C(=O)[C@H](CO)NC(=O)[C@H](CCSC)NC(=O)[C@H](C)NC(=O)[C@H](C)NC(=O)[C@H](CO)NC(=O)[C@@H]2CSSC[C@H](NC(=O)CN)C(=O)N[C@@H](CSSC[C@@H](C(N)=O)NC1=O)C(=O)N[C@@H](CO)C(=O)N[C@@H](Cc1c[nH]cn1)C(=O)N1CCC[C@H]1C(=O)N[C@@H](C(C)C)C(=O)N2` [[+10A]TxID] (HELM PEPTIDE1{G.C.C.S.H.P.V.C.S.A.A.M.S.P.I.C.[am]}$PEPTIDE1,PEPTIDE1,2:R3-8:R3|PEPTIDE1,PEPTIDE1,3:R3-16:R3$$$V2.0), the IC50 against rα3β4 nAChRs was greater than 10000 nM; against rα6/α3β4 nAChRs, 1130 nM.
The matching figures for `CC[C@H](C)[C@@H]1NC(=O)[C@@H]2CCCN2C(=O)[C@H](CO)NC(=O)[C@H](CCSC)NC(=O)[C@H](C)NC(=O)[C@H](CO)NC(=O)[C@@H]2CSSC[C@H](NC(=O)CN)C(=O)N[C@@H](CSSC[C@@H](C(N)=O)NC(=O)[C@H](C)NC1=O)C(=O)N[C@@H](CO)C(=O)N[C@@H](Cc1c[nH]cn1)C(=O)N1CCC[C@H]1C(=O)N[C@@H](C(C)C)C(=O)N2` [[+15A]TxID] (HELM PEPTIDE1{G.C.C.S.H.P.V.C.S.A.M.S.P.I.A.C.[am]}$PEPTIDE1,PEPTIDE1,2:R3-8:R3|PEPTIDE1,PEPTIDE1,3:R3-16:R3$$$V2.0): 3 nM and 37 nM.
The matching figures for `CC[C@H](C)[C@@H]1NC(=O)[C@@H]2CCCN2C(=O)[C@H](C)NC(=O)[C@H](CO)NC(=O)[C@H](CCSC)NC(=O)[C@H](C)NC(=O)[C@H](CO)NC(=O)[C@@H]2CSSC[C@H](NC(=O)CN)C(=O)N[C@@H](CSSC[C@@H](C(N)=O)NC1=O)C(=O)N[C@@H](CO)C(=O)N[C@@H](Cc1c[nH]cn1)C(=O)N1CCC[C@H]1C(=O)N[C@@H](C(C)C)C(=O)N2` [[+13A]TxID] (HELM PEPTIDE1{G.C.C.S.H.P.V.C.S.A.M.S.A.P.I.C.[am]}$PEPTIDE1,PEPTIDE1,2:R3-8:R3|PEPTIDE1,PEPTIDE1,3:R3-16:R3$$$V2.0): 9.9 nM and 64 nM.
On to `CC[C@H](C)[C@@H]1NC(=O)[C@@H]2CCCN2C(=O)[C@H](CO)NC(=O)[C@H](C)NC(=O)[C@H](CCSC)NC(=O)[C@H](C)NC(=O)[C@H](CO)NC(=O)[C@@H]2CSSC[C@H](NC(=O)CN)C(=O)N[C@@H](CSSC[C@@H](C(N)=O)NC1=O)C(=O)N[C@@H](CO)C(=O)N[C@@H](Cc1c[nH]cn1)C(=O)N1CCC[C@H]1C(=O)N[C@@H](C(C)C)C(=O)N2` [[+12A]TxID] (HELM PEPTIDE1{G.C.C.S.H.P.V.C.S.A.M.A.S.P.I.C.[am]}$PEPTIDE1,PEPTIDE1,2:R3-8:R3|PEPTIDE1,PEPTIDE1,3:R3-16:R3$$$V2.0), for which the IC50 against rα3β4 nAChRs was found to be 49 nM; at rα6/α3β4 nAChRs it was 34 nM.
